Assay results: patent US20230127906A1, “FORMULATIONS FOR EXTENDING LIFESPAN AND HEALTHSPAN” (Buck Institute for Research on Aging, priority 2017, published 2023)
“Also recorded” adds a separate entry of the source.

Legend:
IMR-90 fibroblasts = assay: Cell senescence assay, irradiated cells, β-galactosidase; assay type: cell-based; conditions: cells pre-treated prior to irradiation, FIG. 12
Protocol: To measure the effects of Ca-AKG on cell senescence, IMR-90 fibroblasts in culture were exposed to gamma-irradiation either after pretreatment with AKG or prior to (post) treatment with Ca-AKG. Cell senescence was measured by β-Galactosidase fluorescence.

C57BL/6J mice = assay: 31-item clinical frailty index in aged mice (total score and individual metrics); assay type: in vivo; conditions: for alopecia scores (hair loss): four month treatment starting at 18 months of age, FIG. 35; for piloerection: four month treatment, FIG. 37
Source text: C57BL/6J mice of both sexes are aged in group caging in an approved animal facility. Mice are maintained on a 12-hour light/dark cycle, with free access to food and water. In general, initiation of interventions occurs in mice after 12 months of age and is maintained throughout the lifespan of the mice. However, short term or periodic interventional strategies may also be tested.
Mice are randomly assigned to either treatment or control group, and administered compositions of active agents or placebo (control) in food for a sufficient treatment period to observe effects on frailty characteristics.
Mice are periodically evaluated on the 31-item clinical frailty index previously described herein. This was first reported by Whitehead et al. (Journals of Gerontology: BIOLOGICAL SCIENCES, 69:621-632; 2014). This has been used in studies recently as a valuable metric of mouse frailty that involves non-invasive scoring ideal for longitudinal studies and corresponds well with the onset of human frailty (Rockwood et al., Scientific Reports, 7, 43068, 2017).
The 31 point metric for assessment of animal frailty is included in the following table:
For all individual frailty metrics shown, a similar strategy was used to assess frailty score. Using a double blind method, scorers were asked to assess the relative score of each animal either as 0 (healthy), 0.5 (moderately unhealthy) and 1 (unhealthy). For total frailty, all 31 metrics are added and divided by 31. For cohort 2, we report the total frailty score simply as the sum of all 31 metrics without normalization.
Loss of fur color and appearance of grey hair is used interchangeably.
Alopecia or hair loss is used interchangeably.
Kyphosis is a measure of exaggerated outward curvature of the lower cervical/thoracic vertebral column, and can reflect either loss of bone density or increased muscle weakness.
Tremors are a measure of involuntary shaking at rest or during movement. Dermatitis is a routine occurrence in aging C57/B16 mice.
Piloerection is defined as involuntary hair bristling and can be thought of similarly to “goose bumps.” This increases with age and can be triggered by coldness, reflecting an inability of the mice to maintain body temperature.
Mice are randomly assigned to either treatment or control group, and administered compositions comprising Ca-AKG or placebo in food for a sufficient treatment period to observe effects on frailty characteristics.
Mice are periodically evaluated on the 31-item clinical frailty index previously described herein.

inflammatory cytokines = assay: Inflammatory cytokine levels in aged mice; assay type: in vivo; conditions: three month treatment starting at 18 months of age, animals at 21 months, Cohort 2, FIG. 24

| SMILES | cell senescence, senescence-associated β-galactosidase (beta gal) (IMR-90 fibroblasts) | alopecia scores (hair loss) (C57BL/6J mice; female mice) | piloerection (C57BL/6J mice; female mice) | grey hair (C57BL/6J mice; female mice, measured at 23 months of life, Cohort 1, FIG. 18) | hair loss (C57BL/6J mice; relative to control mice, Cohort 1, FIG. 20, 21) | kyphosis (C57BL/6J mice; relative to control mice, Cohort 1, FIG. 22) | tremors (C57BL/6J mice; relative to control mice, Cohort 1, FIG. 23) | coat graying / grey hair (C57BL/6J mice; vs placebo/control mice, Cohort 1, FIG. 11, 19, 20) | levels of inflammatory cytokines (inflammatory cytokines) | fur color (coat color) (C57BL/6J mice; female mice, four months treatment starting at 18 months of age, FIG. 36) | frailty scores (frailty index) (C57BL/6J mice; female mice, two months of treatment, Cohort 2, FIG. 10A) | kyphosis index (C57BL/6J mice; male and female mice combined, two months treatment starting at 18 months of age, FIG. 34) | frailty scores (frailty index) (C57BL/6J mice; male mice, 2 months of treatment, Cohort 2, FIG. 10C) |
| --- | --- | --- | --- | --- | --- | --- | --- | --- | --- | --- | --- | --- | --- |
| O=C([O-])CCC(=O)C(=O)[O-].[Ca+2] [Ca-AKG, calcium α-ketoglutarate] | protected cells from irradiation-induced senescence; also recorded: decreases relative to control | neither Ca-AKG nor RP had significant effects on their own | Neither compound alone had an effect | reduction in grey hair | reduced hair loss; also recorded: reduction in hair loss | reduction in kyphosis | reduction in tremors | dramatically reduced; also recorded: less grey hair than the control mouse; also recorded: less gray hair | prevents, or in some cases even reverses, the increase in levels of inflammatory cytokines | – | – | – | – |
| CCCCCCCCCCCCCCCC(=O)OC/C=C(C)/C=C/C=C(C)/C=C/C1=C(C)CCCC1(C)C [RP, retinyl palmitate] | – | neither Ca-AKG nor RP had significant effects on their own | Neither compound alone had an effect | – | – | – | – | – | – | – | – | – | – |
| C=C1CC[C@H](O)C/C1=C/C=C1\CCC[C@]2(C)[C@@H]([C@H](C)CCCC(C)C)CC[C@@H]12 [vitamin D3] | – | sufficient to reduce alopecia | – | – | – | – | – | – | – | younger coat color | lower frailty | reduce the kyphosis index significantly | no significant reduction in frailty |
